*1 amine or outer side, *2 acyl side, *3 side chain or, on linkers, in order; H or OH if unused. Where a SMILES comes first, the peptide text is derived from it. Side-chain parts run from the residue outwards. The star is where a group is joined. C18 diacid = O=C(O)CCCCCCCCCCCCCCCCC(=O)*; γGlu = O=C(O)[C@H](CCC(=O)[*:2])N[*:1]; Isovaleryl = CC(C)CC(=O)*; AEEA = NCCOCCOCC(=O)O

Consider five compounds from patent US12559529B2, “NPY2 receptor agonists” (Boehringer Ingelheim International GmbH, priority 2019, dated 2026).

This assay deals with T1, Human Neuropeptide Y2 Receptor (Homo sapiens, UniProt P49146).
T1 construct: purchased CHEMICON HTS066M
T1 sequence (P49146 1-381): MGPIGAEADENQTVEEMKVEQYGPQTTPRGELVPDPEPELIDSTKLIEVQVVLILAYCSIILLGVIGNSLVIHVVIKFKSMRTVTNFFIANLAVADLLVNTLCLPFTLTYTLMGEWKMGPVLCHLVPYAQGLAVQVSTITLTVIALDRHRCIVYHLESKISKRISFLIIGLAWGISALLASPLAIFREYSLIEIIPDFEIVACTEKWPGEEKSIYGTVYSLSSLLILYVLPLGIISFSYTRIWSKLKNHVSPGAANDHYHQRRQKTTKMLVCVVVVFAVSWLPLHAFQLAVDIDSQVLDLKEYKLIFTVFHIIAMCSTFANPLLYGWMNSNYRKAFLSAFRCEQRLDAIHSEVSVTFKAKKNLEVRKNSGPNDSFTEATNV
Put plainly: Radioligand binding competition assay (RLB). The following applies: Table 3; human 125I-PYY (1-36) 0.02 nM, Y2 receptor membranes; read-out: Ki. An outline of the steps: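 Membranes from cells expressing human Y2 receptor (0.5 μg protein/well) were incubated with radioligand and serially diluted peptides in 50 mM HEPES, 5 mM MgCl2, 1 mM CaCl2, 0.2% ovalbumin, pH 7.4, for 2 h at room temperature with shaking. Bound radioactivity was collected by filtration and counted; IC50 from sigmoidal nonlinear regression.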
Turning to `CC(C)CC(=O)N[C@@H](C)C(=O)N1CCC[C@H]1C(=O)N[C@@H](CCC(=O)O)C(=O)N[C@@H](CCCCNC(=O)COCCOCCNC(=O)COCCOCCNC(=O)CC[C@H](NC(=O)CCCCCCCCCCCCCCCCC(=O)O)C(=O)O)C(=O)N1CCC[C@H]1C(=O)N[C@@H](CCC(=O)O)C(=O)N[C@@H](CCC(=O)O)C(=O)N[C@@H](CCC(=O)O)C(=O)N[C@@H](C)C(=O)N[C@@H](CO)C(=O)N1CCC[C@H]1C(=O)N[C@@H](CO)C(=O)N[C@@H](CCC(=O)O)C(=O)N[C@@H](CC(C)C)C(=O)N[C@@H](CCC(N)=O)C(=O)N[C@@H](CCCNC(=N)N)C(=O)N[C@@H](Cc1ccc(O)cc1)C(=O)N[C@@H](Cc1ccc(O)cc1)C(=O)N[C@H](C(=O)N[C@@H](CO)C(=O)N[C@@H](CC(C)C)C(=O)N[C@@H](CCCNC(=N)N)C(=O)N[C@@H](Cc1c[nH]cn1)C(=O)N[C@@H](Cc1ccc(O)cc1)C(=O)N[C@@H](Cc1ccc(O)cc1)C(=O)N[C@@H](CC(N)=O)C(=O)N[C@@H](Cc1c[nH]c2ccccc12)C(=O)N[C@@H](CC(C)C)C(=O)N[C@H](C(=O)N[C@@H](CCCNC(=N)N)C(=O)N[C@@H](CCC(N)=O)C(=O)N[C@@H](CCCNC(=N)N)C(=O)N[C@@H](Cc1ccc(O)cc1)C(N)=O)[C@@H](C)O)C(C)C` [Compound 71, N{alpha-4}-(3-methylbutanoyl)-N{epsilon-7}-[2-(2-{2-[2-(2-{2-[(4S)-4-carboxy-4-(17-carboxyheptadecanamido)butanamido]ethoxy}ethoxy)acetamido]ethoxy}ethoxy)acetamido]-[4A,7K,9E,11E,15S,18Q,22V,28Y,30W,31L]hPYY (4-36)] (Isovaleryl-APEK([AEEA-AEEA-γGlu-C18 diacid])PEEEASPSELQRYYVSLRHYYNWLTRQRY-NH2), the Ki (as a rule, a dissociation constant, usually derived from enzyme kinetics or from competition with a known ligand) is 5.22 nM. Consider `CC(C)CC(=O)N[C@@H](C)C(=O)N1CCC[C@H]1C(=O)N[C@@H](CCC(=O)O)C(=O)N[C@@H](CCCCNC(=O)COCCOCCNC(=O)COCCOCCNC(=O)CC[C@H](NC(=O)CCCCCCCCCCCCCCCCC(=O)O)C(=O)O)C(=O)N1CCC[C@H]1C(=O)N1CCC[C@H]1C(=O)N[C@@H](CCC(=O)O)C(=O)N[C@@H](CC(=O)O)C(=O)N[C@@H](C)C(=O)N[C@@H](CCC(=O)O)C(=O)N1CCC[C@H]1C(=O)N[C@@H](CCC(=O)O)C(=O)N[C@@H](CCC(=O)O)C(=O)N[C@@H](CC(C)C)C(=O)N[C@@H](CCC(N)=O)C(=O)N[C@@H](CCCNC(=N)N)C(=O)N[C@@H](Cc1ccc(O)cc1)C(=O)N[C@@H](Cc1ccc(O)cc1)C(=O)N[C@H](C(=O)N[C@@H](CO)C(=O)N[C@@H](CC(C)C)C(=O)N[C@@H](CCCNC(=N)N)C(=O)N[C@@H](Cc1c[nH]cn1)C(=O)N[C@@H](Cc1ccc(O)cc1)C(=O)N[C@@H](Cc1ccc(O)cc1)C(=O)N[C@@H](CC(N)=O)C(=O)N[C@@H](Cc1c[nH]c2ccccc12)C(=O)N[C@@H](CC(C)C)C(=O)N[C@H](C(=O)N[C@@H](CCCNC(=N)N)C(=O)N[C@@H](CCC(N)=O)C(=O)N[C@@H](CCCNC(=N)N)C(=O)N[C@@H](Cc1ccc(O)cc1)C(N)=O)[C@@H](C)O)C(C)C` [Compound 27, N{alpha-4}-(3-methylbutanoyl)-N{epsilon-7}-[2-(2-{2-[2-(2-{2-[(4S)-4-carboxy-4-(17-carboxyheptadecanamido)butanamido]ethoxy}ethoxy)acetamido]ethoxy}ethoxy)acetamido]-[4A,7K,9P,13E,18Q,22V,28Y,30W,31L]hPYY (4-36)], for which the Ki was 0.96 nM. Next, `CC(C)CC(=O)N[C@@H](C)C(=O)N1CCC[C@H]1C(=O)N[C@@H](CCC(=O)O)C(=O)N[C@@H](CCCCNC(=O)COCCOCCNC(=O)COCCOCCNC(=O)CC[C@H](NC(=O)CCCCCCCCCCCCCCCCC(=O)O)C(=O)O)C(=O)N1CCC[C@H]1C(=O)N[C@@H](CCC(=O)O)C(=O)N[C@@H](CCC(=O)O)C(=O)N[C@@H](CC(=O)O)C(=O)N[C@@H](C)C(=O)N[C@@H](CO)C(=O)N1CCC[C@H]1C(=O)N[C@@H](C)C(=O)N[C@@H](CCC(=O)O)C(=O)N[C@@H](CC(C)C)C(=O)N[C@@H](CCC(N)=O)C(=O)N[C@@H](CCCNC(=N)N)C(=O)N[C@@H](Cc1ccc(O)cc1)C(=O)N[C@@H](Cc1ccc(O)cc1)C(=O)N[C@H](C(=O)N[C@@H](CCC(=O)O)C(=O)N[C@@H](CC(C)C)C(=O)N[C@@H](CCCNC(=N)N)C(=O)N[C@@H](Cc1c[nH]cn1)C(=O)N[C@@H](Cc1ccc(O)cc1)C(=O)N[C@@H](Cc1ccc(O)cc1)C(=O)N[C@@H](CC(N)=O)C(=O)N[C@@H](Cc1c[nH]c2ccccc12)C(=O)N[C@@H](CC(C)C)C(=O)N[C@H](C(=O)N[C@@H](CCCNC(=N)N)C(=O)N[C@@H](CCC(N)=O)C(=O)N[C@@H](CCCNC(=N)N)C(=O)N[C@@H](Cc1ccc(O)cc1)C(N)=O)[C@@H](C)O)C(C)C` [Compound 215, N{alpha-4}-(3-methylbutanoyl)-N{epsilon-7}-[2-(2-{2-[2-(2-{2-[(4S)-4-carboxy-4-(17-carboxyheptadecanamido)butanamido]ethoxy}ethoxy)acetamido]ethoxy}ethoxy)acetamido]-[4A,7K,9E,15A,18Q,22V,23E,28Y,30W,31L]hPYY (4-36)]: 0.48 nM; `CC(C)CC(=O)N[C@@H](C)C(=O)N1CCC[C@H]1C(=O)N[C@@H](CCC(=O)O)C(=O)N[C@@H](CCCCNC(=O)COCCOCCNC(=O)COCCOCCNC(=O)CC[C@H](NC(=O)CCCCCCCCCCCCCCCCC(=O)O)C(=O)O)C(=O)N1CCC[C@H]1C(=O)N[C@@H](CCC(=O)O)C(=O)N[C@@H](CCC(=O)O)C(=O)N[C@@H](CC(=O)O)C(=O)N[C@@H](C)C(=O)N[C@@H](CO)C(=O)N1CCC[C@H]1C(=O)N[C@@H](CCC(=O)O)C(=O)N[C@@H](CCC(=O)O)C(=O)N[C@@H](CC(C)C)C(=O)N[C@@H](CCC(N)=O)C(=O)N[C@@H](CCCNC(=N)N)C(=O)N[C@@H](Cc1ccc(O)cc1)C(=O)N[C@@H](C)C(=O)N[C@H](C(=O)N[C@@H](CO)C(=O)N[C@@H](CC(C)C)C(=O)N[C@@H](CCCNC(=N)N)C(=O)N[C@@H](Cc1c[nH]cn1)C(=O)N[C@@H](Cc1ccc(O)cc1)C(=O)N[C@@H](Cc1ccc(O)cc1)C(=O)N[C@@H](CC(N)=O)C(=O)N[C@@H](Cc1c[nH]c2ccccc12)C(=O)N[C@@H](CC(C)C)C(=O)N[C@H](C(=O)N[C@@H](CCCNC(=N)N)C(=O)N[C@@H](CCC(N)=O)C(=O)N[C@@H](CCCNC(=N)N)C(=O)N[C@@H](Cc1ccc(O)cc1)C(N)=O)[C@@H](C)O)C(C)C` [Compound 85, N{alpha-4}-(3-methylbutanoyl)-N{epsilon-7}-[2-(2-{2-[2-(2-{2-[(4S)-4-carboxy-4-(17-carboxyheptadecanamido)butanamido]ethoxy}ethoxy)acetamido]ethoxy}ethoxy)acetamido]-[4A,7K,9E,18Q,21A,22V,28Y,30W,31L]hPYY (4-36)]: 1.56 nM. Turning to `CC(C)CC(=O)N[C@@H](C)C(=O)N1CCC[C@H]1C(=O)N[C@@H](CCC(=O)O)C(=O)N[C@@H](CCCCNC(=O)COCCOCCNC(=O)COCCOCCNC(=O)CC[C@H](NC(=O)CCCCCCCCCCCCCCCCC(=O)O)C(=O)O)C(=O)N1CCC[C@H]1C(=O)N[C@@H](CCC(=O)O)C(=O)N[C@@H](CCC(=O)O)C(=O)N[C@@H](CC(=O)O)C(=O)N[C@@H](C)C(=O)N[C@H](C(=O)N1CCC[C@H]1C(=O)N[C@@H](CCC(=O)O)C(=O)N[C@@H](CCC(=O)O)C(=O)N[C@H](C(=O)N[C@@H](CCC(=O)O)C(=O)N[C@@H](CCCNC(=N)N)C(=O)N[C@@H](Cc1ccc(O)cc1)C(=O)N[C@@H](Cc1ccc(O)cc1)C(=O)N[C@H](C(=O)N[C@@H](CO)C(=O)N[C@@H](CC(C)C)C(=O)N[C@@H](CCCNC(=N)N)C(=O)N[C@@H](Cc1c[nH]cn1)C(=O)N[C@@H](Cc1ccc(O)cc1)C(=O)N[C@@H](Cc1ccc(O)cc1)C(=O)N[C@@H](CC(N)=O)C(=O)N[C@@H](Cc1c[nH]c2ccccc12)C(=O)N[C@@H](CC(C)C)C(=O)N[C@H](C(=O)N[C@@H](CCCNC(=N)N)C(=O)N[C@@H](CCC(N)=O)C(=O)N[C@@H](CCCNC(=N)N)C(=O)N[C@@H](Cc1ccc(O)cc1)C(N)=O)[C@@H](C)O)C(C)C)[C@@H](C)O)[C@@H](C)O` [Compound 178, N{alpha-4}-(3-methylbutanoyl)-N{epsilon-7}-[2-(2-{2-[2-(2-{2-[(4S)-4-carboxy-4-(17-carboxyheptadecanamido)butanamido]ethoxy}ethoxy)acetamido]ethoxy}ethoxy)acetamido]-[4A,7K,9E,13T,17T,18E,22V,28Y,30W,31L]hPYY (4-36)] (Isovaleryl-APEK([AEEA-AEEA-γGlu-C18 diacid])PEEDATPEETERYYVSLRHYYNWLTRQRY-NH2), the Ki is 2.05 nM.
